Tests used:
Assay in all cases: Nanosyn kinase profiling
Format in all cases: biochemical
Conditions in all cases: read-out: Percentage inhibition; for inhibition at 0.1 µM: 0.1 µM inhibitor; for inhibition at 1 µM: 1 µM inhibitor
PAK1 = target: T1, PAK1 (Homo sapiens, UniProt Q13153)
T1 construct: purchased Nanosyn (enzymatic panel); SGC in-house recombinant human kinases (DSF panel); Invitrogen (ALK1-6)
Protocol: (§1) Percentage inhibition was determined for each kinase at both 0.1 µM and 1 µM inhibitor concentration (supplemental Table S2). […]. […]. When visualized on a kinase phylogenetic tree, these were primarily clustered within the receptor tyrosine kinases (TKs) as well as the calmodulin-dependent kinases (CAMKs) (Figure 2C).
(§2) Inhibitor selectivity profiling against 200 human kinases at 0.1 and 1 µM inhibitor concentration was performed by Nanosyn (www.nanosyn.com).

PRKD3 = target: T2, PRKD3 (Homo sapiens, UniProt O94806)
T2 construct: purchased Nanosyn (enzymatic panel); SGC in-house recombinant human kinases (DSF panel); Invitrogen (ALK1-6)
T2 sequence (O94806 1-890): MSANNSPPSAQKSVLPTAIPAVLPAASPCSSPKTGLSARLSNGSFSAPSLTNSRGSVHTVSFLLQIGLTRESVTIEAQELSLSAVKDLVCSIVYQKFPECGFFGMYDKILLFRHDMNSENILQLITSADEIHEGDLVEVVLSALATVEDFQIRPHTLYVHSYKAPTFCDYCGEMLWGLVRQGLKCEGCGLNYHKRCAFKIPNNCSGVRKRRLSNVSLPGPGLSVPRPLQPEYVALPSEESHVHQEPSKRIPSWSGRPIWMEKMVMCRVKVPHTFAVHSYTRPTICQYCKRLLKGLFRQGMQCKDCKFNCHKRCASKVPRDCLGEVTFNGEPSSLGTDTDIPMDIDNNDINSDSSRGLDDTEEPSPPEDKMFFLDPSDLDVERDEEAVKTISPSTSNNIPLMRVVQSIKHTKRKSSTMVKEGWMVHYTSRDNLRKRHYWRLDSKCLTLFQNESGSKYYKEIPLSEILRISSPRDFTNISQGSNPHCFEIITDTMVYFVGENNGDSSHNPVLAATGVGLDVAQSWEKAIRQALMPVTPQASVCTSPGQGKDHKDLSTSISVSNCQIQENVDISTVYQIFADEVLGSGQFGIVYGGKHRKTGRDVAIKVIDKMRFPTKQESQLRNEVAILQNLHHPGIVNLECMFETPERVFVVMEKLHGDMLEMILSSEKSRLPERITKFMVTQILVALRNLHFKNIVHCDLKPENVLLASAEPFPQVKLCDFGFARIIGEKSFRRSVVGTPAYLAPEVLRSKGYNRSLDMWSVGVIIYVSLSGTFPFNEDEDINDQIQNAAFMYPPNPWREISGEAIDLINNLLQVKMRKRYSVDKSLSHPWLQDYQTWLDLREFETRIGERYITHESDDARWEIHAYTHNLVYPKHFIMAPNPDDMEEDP
Protocol: as §1, §2

CDK2/cycE = target: T3, CDK2/cycE (Homo sapiens, UniProt P24941)
T3 construct: purchased Nanosyn (enzymatic panel); SGC in-house recombinant human kinases (DSF panel); Invitrogen (ALK1-6)
Protocol: as §1, §2

DYRK2 = target: T4, DYRK2 (Homo sapiens, UniProt Q92630)
T4 construct: purchased Nanosyn (enzymatic panel); SGC in-house recombinant human kinases (DSF panel); Invitrogen (ALK1-6)
T4 sequence (Q92630 1-601): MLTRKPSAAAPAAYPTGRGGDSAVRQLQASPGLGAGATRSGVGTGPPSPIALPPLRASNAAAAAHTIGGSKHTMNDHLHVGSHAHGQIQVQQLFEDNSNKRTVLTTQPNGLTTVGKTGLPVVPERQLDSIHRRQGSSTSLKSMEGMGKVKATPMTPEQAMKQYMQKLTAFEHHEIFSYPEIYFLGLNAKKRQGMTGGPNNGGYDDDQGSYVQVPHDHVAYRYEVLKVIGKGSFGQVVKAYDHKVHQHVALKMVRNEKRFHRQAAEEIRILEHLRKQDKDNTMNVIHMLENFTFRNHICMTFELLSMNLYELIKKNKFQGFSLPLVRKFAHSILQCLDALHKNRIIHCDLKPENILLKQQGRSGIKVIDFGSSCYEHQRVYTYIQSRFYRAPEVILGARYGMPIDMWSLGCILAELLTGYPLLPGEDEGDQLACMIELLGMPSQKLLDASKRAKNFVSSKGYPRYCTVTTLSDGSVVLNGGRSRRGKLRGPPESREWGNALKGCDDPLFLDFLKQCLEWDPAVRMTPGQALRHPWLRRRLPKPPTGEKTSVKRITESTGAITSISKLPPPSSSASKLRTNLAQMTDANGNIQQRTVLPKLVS
Protocol: as §1, §2

YES = target: T5, YES (Homo sapiens, UniProt P07947)
T5 construct: purchased Nanosyn (enzymatic panel); SGC in-house recombinant human kinases (DSF panel); Invitrogen (ALK1-6)
T5 sequence (P07947 whole entry): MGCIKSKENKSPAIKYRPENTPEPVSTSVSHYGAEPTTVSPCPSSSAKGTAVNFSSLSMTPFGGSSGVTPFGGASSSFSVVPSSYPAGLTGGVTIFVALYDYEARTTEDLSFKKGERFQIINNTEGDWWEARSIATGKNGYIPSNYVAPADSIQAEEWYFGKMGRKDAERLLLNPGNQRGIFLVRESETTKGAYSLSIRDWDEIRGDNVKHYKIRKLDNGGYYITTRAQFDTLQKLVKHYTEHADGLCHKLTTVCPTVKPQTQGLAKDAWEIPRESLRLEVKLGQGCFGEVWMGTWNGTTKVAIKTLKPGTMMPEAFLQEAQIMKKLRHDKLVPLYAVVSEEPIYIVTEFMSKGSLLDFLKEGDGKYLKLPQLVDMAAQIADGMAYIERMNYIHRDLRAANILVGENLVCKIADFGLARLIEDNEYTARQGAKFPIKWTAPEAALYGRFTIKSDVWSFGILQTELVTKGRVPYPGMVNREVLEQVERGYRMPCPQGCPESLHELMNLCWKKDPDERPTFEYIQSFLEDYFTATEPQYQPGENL
Protocol: as §1, §2

MST2 = target: T6, MST2 (Homo sapiens, UniProt Q13188)
T6 construct: purchased Nanosyn (enzymatic panel); SGC in-house recombinant human kinases (DSF panel); Invitrogen (ALK1-6)
T6 sequence (Q13188 1-491): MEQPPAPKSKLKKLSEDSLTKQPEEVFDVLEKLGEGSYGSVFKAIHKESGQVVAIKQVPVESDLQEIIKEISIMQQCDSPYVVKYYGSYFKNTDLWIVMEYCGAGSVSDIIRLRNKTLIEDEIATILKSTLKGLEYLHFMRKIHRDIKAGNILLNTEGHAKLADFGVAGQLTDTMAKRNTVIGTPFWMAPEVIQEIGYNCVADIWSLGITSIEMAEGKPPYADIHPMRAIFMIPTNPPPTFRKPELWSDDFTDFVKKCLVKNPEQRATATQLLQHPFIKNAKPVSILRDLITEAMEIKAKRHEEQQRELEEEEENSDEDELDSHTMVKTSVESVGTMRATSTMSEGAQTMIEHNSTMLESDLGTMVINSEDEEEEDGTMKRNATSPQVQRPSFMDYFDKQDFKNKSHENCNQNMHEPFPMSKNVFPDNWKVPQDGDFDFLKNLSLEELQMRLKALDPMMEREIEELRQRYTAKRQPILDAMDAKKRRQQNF
Protocol: as §1, §2

FGR = target: T7, FGR (Homo sapiens, UniProt P09769)
T7 construct: purchased Nanosyn (enzymatic panel); SGC in-house recombinant human kinases (DSF panel); Invitrogen (ALK1-6)
T7 sequence (P09769 whole entry): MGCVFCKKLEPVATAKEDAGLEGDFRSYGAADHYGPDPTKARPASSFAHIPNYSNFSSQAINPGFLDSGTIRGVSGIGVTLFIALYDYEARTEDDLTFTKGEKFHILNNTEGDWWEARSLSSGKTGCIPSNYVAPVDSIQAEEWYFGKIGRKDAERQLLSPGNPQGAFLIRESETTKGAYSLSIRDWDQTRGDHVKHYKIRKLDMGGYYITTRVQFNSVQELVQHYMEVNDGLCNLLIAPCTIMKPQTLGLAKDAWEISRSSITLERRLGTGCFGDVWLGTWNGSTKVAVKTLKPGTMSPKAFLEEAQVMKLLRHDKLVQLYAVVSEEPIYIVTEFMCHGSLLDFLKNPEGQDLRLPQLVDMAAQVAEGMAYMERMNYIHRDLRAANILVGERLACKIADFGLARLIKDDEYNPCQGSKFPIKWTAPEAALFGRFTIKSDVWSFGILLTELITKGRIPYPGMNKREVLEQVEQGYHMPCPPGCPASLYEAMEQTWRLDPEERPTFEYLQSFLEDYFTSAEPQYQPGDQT
Protocol: as §1, §2

T1 sequence (Q13153 whole entry): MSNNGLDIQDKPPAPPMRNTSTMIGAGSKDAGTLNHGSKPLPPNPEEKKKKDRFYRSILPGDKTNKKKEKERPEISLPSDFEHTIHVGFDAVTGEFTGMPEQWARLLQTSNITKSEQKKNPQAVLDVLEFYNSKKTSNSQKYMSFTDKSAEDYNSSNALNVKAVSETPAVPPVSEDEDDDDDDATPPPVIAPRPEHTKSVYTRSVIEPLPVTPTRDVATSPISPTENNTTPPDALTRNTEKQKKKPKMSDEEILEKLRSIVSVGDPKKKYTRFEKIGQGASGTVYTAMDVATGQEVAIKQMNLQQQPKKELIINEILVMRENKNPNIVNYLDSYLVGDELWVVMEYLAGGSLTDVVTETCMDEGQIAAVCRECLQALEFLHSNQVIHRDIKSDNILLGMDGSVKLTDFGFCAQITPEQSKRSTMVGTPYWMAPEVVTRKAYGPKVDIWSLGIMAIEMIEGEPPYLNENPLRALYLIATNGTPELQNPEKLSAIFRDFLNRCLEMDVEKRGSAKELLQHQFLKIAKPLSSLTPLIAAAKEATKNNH

COc1cc(-c2cc(-c3cccc(O)c3)cnc2N)cc(OC)c1OC [K02288, 3-[6-amino-5-(3,4,5-trimethoxy-phenyl)-pyridin-3-yl]-phenol]
inhibition at 0.1 µM (PAK1): 0% | inhibition at 1 µM (PAK1): 0.6% | inhibition at 0.1 µM (PRKD3): -1% | inhibition at 1 µM (PRKD3): 3.2% | inhibition at 0.1 µM (CDK2/cycE): 0.2% | inhibition at 1 µM (CDK2/cycE): 1.5% | inhibition at 0.1 µM (DYRK2): -1% | inhibition at 1 µM (DYRK2): -3% | inhibition at 0.1 µM (YES): 4.9% | inhibition at 1 µM (YES): 34% | inhibition at 0.1 µM (MST2): -2% | inhibition at 1 µM (MST2): -1% | inhibition at 0.1 µM (FGR): 6.7% | inhibition at 1 µM (FGR): 37%

c1ccc2c(-c3cnn4cc(-c5ccc(N6CCNCC6)cc5)cnc34)ccnc2c1 [LDN-193189]
inhibition at 0.1 µM (PAK1): 4.3% | inhibition at 1 µM (PAK1): 4.9% | inhibition at 0.1 µM (PRKD3): 3.2% | inhibition at 1 µM (PRKD3): 13% | inhibition at 0.1 µM (CDK2/cycE): 2.8% | inhibition at 1 µM (CDK2/cycE): 5.3% | inhibition at 0.1 µM (DYRK2): 2.3% | inhibition at 1 µM (DYRK2): 0.2% | inhibition at 0.1 µM (YES): 12% | inhibition at 1 µM (YES): 50% | inhibition at 0.1 µM (MST2): 5.1% | inhibition at 1 µM (MST2): 6% | inhibition at 0.1 µM (FGR): 13% | inhibition at 1 µM (FGR): 53%

From publication PMC3639963, “A New Class of Small Molecule Inhibitor of BMP Signaling” (PLoS ONE, 2013)
